The test system of experiment [1] is HCV genotype 1a replicon. As to the kind of experiment: HCV replicon luciferase reporter assay, genotype 1a (LE_1a). In kind it is cell-based. To be noted: Hepatitis C virus, 72 h, HUH-7 cells, genotype 1a H77 replicon, 3 days incubation, Renilla luciferase. The text has this:
(§1) An HCV replicon whole cell system was established as described by Lohmann V, Korner F, Koch J, Herian U, Theilmann L, Bartenschlager R., Science 285(5424):110-3 (1999) and modified to introduce a luciferase reporter, as first described by Krieger et al (Krieger N, Lohmann V, and Bartenschlager R, J. Virol. 75(10):4614-4624 (2001)). cDNA encoding a humanized form of the Renilla luciferase gene and a linker sequence fused directly to the 3′-end of the luciferase gene were introduced into the replicon construct using an Asc1 restriction site located in core, directly upstream of the neomycin marker gene. The adaptive mutation at position 1179 (serine to isoleucine) was also introduced (Blight K J, Kolykhalov, A A, Rice, C M, Science 290(5498):1972-1974). A stable cell line constitutively expressing this HCV replicon construct was generated by first linearizing plasmid DNAs with ScaI. RNA transcripts were synthesized in vitro using the T7 MegaScript transcription kit (Ambion, Austin, Tex.) according to manufacturer's directions. In vitro transcripts of the cDNA were transfected into the human hepatoma cell line, HUH-7. […] Resulting cell lines were characterized for positive and negative strand RNA production and protein production over time.
A stable HCV replicon luciferase reporter cell line representing the genotype 1a H77 strain (Yanagi M, Purcell R H, Emerson S U, et al. Transcripts from a single full-length cDNA clone of hepatitis C virus are infectious when directly transfected into the liver of a chimpanzee. Proc Natl Acad Sci USA 1997; 94(16):8738-8743) was generated as described previously for the genotype 1b(Con1) replicon luciferase cell line. The replicon construct was modified by introducing mutations were introduced into the genes encoding the NS3 helicase domain (proline replaced by leucine at position 1496) and NS5A (serine to isoleucine at position 2204) to improve replication in cell culture.
(§2) HCV replicon luciferase assays were developed to monitor the inhibitory effects of compounds described in the disclosure on HCV genotypes 1a and 1b viral replication. HUH-7 cells, constitutively expressing the HCV replicon, were grown in Dulbecco's Modified Eagle Media (DMEM) (Gibco-BRL) containing 10% Fetal calf serum (FCS) (Sigma) and 1 mg/mL G418 (Gibco-BRL). Compounds were serially diluted 3 folds in DMSO for a twenty-point titration and subsequently transferred to sterile 384-well tissue-culture treated plates (Corning cat #3571). The plates were then seeded with 50 μL of cells at a density of 3.0×10^3 cells/well in DMEM containing 4% FCS (final DMSO concentration at 0.5%). After 3 days incubation at 37° C., cells were analyzed for Renilla Luciferase activity using the EnduRen as substrate (Promega cat #E6485). The EnduRen substrate was diluted in DMEM and then added to the plates to a final concentration of 7.5 μM. The plates were incubated for 2 hrs at 37° C. and then read immediately for 30 seconds with Viewlux Imager (PerkinElmer) using a luminescence program. To assess cytotoxicity of compounds, CC50 values were generated by multiplexing the EnduRen-containing plates with Cell Titer-Blue (Promega, cat #G8082). Cell-Titer Blue (3 μL) was added to each well and incubated for 8 hrs at 37° C. The fluorescence signal from each well was read, with an excitation wavelength at 525/10 nm and an emission wavelength of 598/10 nm, using the Viewlux Imager.
(§3) The EC50 values for compounds were calculated by using a four-parameter logistic equation: y=A+((B−A)/(1+((C/x)^D))), where A and B denotes minimal and maximal % inhibition, respectively, C is the EC50, D is the hill slope and x represents compound concentration.
On the technique in general: In antiviral work, replicon cells carry a viral genome segment that copies itself.

The subject of experiment [2] is HCV genotype 1b replicon. As to the kind of experiment: HCV replicon luciferase reporter assay, genotype 1b (LE_1b). In kind it is cell-based. To be noted: Hepatitis C virus, 72 h, HUH-7 cells, genotype 1b (Con1) replicon, 3 days incubation, Renilla luciferase.
Excerpt: as §1, with “time. […]” for “time.”
as §2, §3

Where two headings read alike, the source gives them in different places.

In the case of `CC[C@@H]1C[C@H](C)CC/C=C\[C@@H]2C[C@@]2(C(=O)NS(=O)(=O)C2(C)CC2)NC(=O)[C@@H]2C[C@@H](Oc3ncc(-c4cnco4)c4cc(OC)ccc34)CN2C(=O)[C@H]1NC(=O)OC(C)(C)C` [Compound 4285, tert-butyl((2R,6S,7R,9R,13aS,14aR,16aS,Z)-7-ethyl-2-((6-methoxy-4-(oxazol-5-yl)isoquinolin-1-yl)oxy)-9-methyl-14a-(((1-methylcyclopropyl)sulfonyl)carbamoyl)-5,16-dioxo-1,2,3,5,6,7,8,9,10,11,13a,14,14a,15,16,16a-hexadecahydrocyclopropa[e]pyrrolo[1,2-a][1,4]diazacyclopentadecin-6-yl)carbamate], the EC50 in experiment [1] (read-out: LE_1a (EC50, range)) fell in the range of 1.01 to 5 nM; in experiment [2] (read-out: LE_1b (EC50, range)) it was 1.01 to 5 nM.

Consider `CC[C@@H]1C[C@H](C)CC/C=C\[C@@H]2C[C@@]2(C(=O)NS(=O)(=O)C2CC2)NC(=O)[C@@H]2C[C@@H](Oc3nc4ncccc4nc3C(F)(F)F)CN2C(=O)[C@H]1NC(=O)OC(C)(C)C` [Compound 4330, tert-butyl((2R,6S,7R,9R,13aS,14aR,16aS,Z)-14a-((cyclopropylsulfonyl)carbamoyl)-7-ethyl-9-methyl-5,16-dioxo-2-((2-(trifluoromethyl)pyrido[2,3-b]pyrazin-3-yl)oxy)-1,2,3,5,6,7,8,9,10,11,13a,14,14a,15,16,16a-hexadecahydrocyclopropa[e]pyrrolo[1,2-a][1,4]diazacyclopentadecin-6-yl)carbamate], for which the EC50 in experiment [1] (read-out: LE_1a (EC50, range)) is 5.01 to 35 nM; in experiment [2] (read-out: LE_1b (EC50, range)), 5.01 to 35 nM.

Take `Cc1cn2c(n1)nc(O[C@@H]1C[C@H]3C(=O)N[C@]4(C(=O)NS(=O)(=O)C5(C)CC5)C[C@H]4/C=C\CC[C@@H](C)C[C@@H](C)[C@H](NC(=O)OC(C)(C)C(F)(F)F)C(=O)N3C1)c1cc(Cl)ccc12` [Compound 6135]: the EC50 in experiment [1] (read-out: LE_1a (EC50, range)) lay within 1.01 to 5 nM; in experiment [2] (read-out: LE_1b (EC50, range)), 0.51 to 1 nM.

For `[2H]C([2H])([2H])C1(S(=O)(=O)NC(=O)[C@@]23C[C@H]2/C=C\CC[C@@H](C)C[C@@H](CC)[C@H](NC(=O)OC(C)(C)C(F)F)C(=O)N2C[C@H](Oc4nccc5cc(OCC)c(F)cc45)C[C@H]2C(=O)N3)CC1` [Compound 5521], the concentration for a half-maximal effect (EC50) is 1.23 nM in experiment [1] (read-out: LE_1a (EC50)); 1.01 to 5 nM in experiment [1] (read-out: LE_1a (EC50, range)); 0.47 nM in experiment [2] (read-out: LE_1b (EC50)); 0.1 to 0.5 nM in experiment [2] (read-out: LE_1b (EC50, range)).

Consider `C[C@@H]1CC/C=C\[C@@H]2C[C@@]2(C(=O)NS(=O)(=O)C2(C)CC2)NC(=O)[C@@H]2C[C@@H](Oc3nccc4c5c(ccc34)CCO5)CN2C(=O)[C@@H](NC(=O)OC(C)(C)C(C)(F)F)[C@H](C)C1` [Compound 5495], for which the EC50 in experiment [1] (read-out: LE_1a (EC50, range)) fell in the range of 1.01 to 5 nM; in experiment [2] (read-out: LE_1b (EC50, range)), 0.51 to 1 nM.

For `[2H]C([2H])([2H])C1(S(=O)(=O)NC(=O)[C@@]23C[C@H]2/C=C\CC[C@@H](C)C[C@@H](CC)[C@H](NC(=O)OC(C)(C)C)C(=O)N2C[C@H](Oc4nccc5cc(OCC)c(F)cc45)C[C@H]2C(=O)N3)CC1` [Compound 5509], the EC50 in experiment [1] (read-out: LE_1a (EC50, range)) was 1.01 to 5 nM; in experiment [2] (read-out: LE_1b (EC50, range)), 0.51 to 1 nM.

For `Cc1cn2c(n1)nc(O[C@@H]1C[C@H]3C(=O)N[C@]4(C(=O)NS(=O)(=O)C5(CF)CC5)C[C@H]4/C=C\CC[C@@H](C)C[C@@H](C)[C@H](NC(=O)OC(C)(C)C(C)(F)F)C(=O)N3C1)c1cc(Cl)ccc12` [Compound 6141], the half-maximal effective concentration (EC50) in experiment [1] (read-out: LE_1a (EC50, range)) lay within 5.01 to 35 nM; in experiment [2] (read-out: LE_1b (EC50, range)) it was 1.01 to 5 nM.

For the compound `C[C@@H]1CC/C=C\[C@@H]2C[C@@]2(C(=O)NS(=O)(=O)C2(C)CC2)NC(=O)[C@@H]2C[C@@H](Oc3nc4nccn4c4ccc(Cl)cc34)CN2C(=O)[C@@H](NC(=O)OC(C)(C)C(F)(F)F)[C@H](C)C1` [Compound 6129], the 50% effective concentration (EC50) in experiment [1] (read-out: LE_1a (EC50)) is 4.21 nM; in experiment [1] (read-out: LE_1a (EC50, range)), 1.01 to 5 nM; in experiment [2] (read-out: LE_1b (EC50)), 0.78 nM; in experiment [2] (read-out: LE_1b (EC50, range)) it was 0.51 to 1 nM.

In the case of `C[C@@H]1CC/C=C\[C@@H]2C[C@@]2(C(=O)NS(=O)(=O)C2(CF)CC2)NC(=O)[C@@H]2C[C@@H](Oc3nc4nccn4c4ccc(Cl)cc34)CN2C(=O)[C@@H](NC(=O)OC(C)(C)C(F)(F)F)[C@H](C)C1` [Compound 6131], the EC50 in experiment [1] (read-out: LE_1a (EC50, range)) was in the range of 5.01 to 35 nM; in experiment [2] (read-out: LE_1b (EC50, range)), 1.01 to 5 nM.

Regarding `[2H]C([2H])([2H])C1(S(=O)(=O)NC(=O)[C@@]23C[C@H]2/C=C\CC[C@@H](C)C[C@@H](CC)[C@H](NC(=O)OC(C)(C)C(F)(F)F)C(=O)N2C[C@H](Oc4nccc5cc(OC)c(F)cc45)C[C@H]2C(=O)N3)CC1` [Compound 5511], the EC50 in experiment [1] (read-out: LE_1a (EC50, range)) was in the range of 1.01 to 5 nM; in experiment [2] (read-out: LE_1b (EC50, range)), 1.01 to 5 nM.

For `CC[C@@H]1C[C@H](C)CC/C=C\[C@@H]2C[C@@]2(C(=O)NS(=O)(=O)C2(C)CC2)NC(=O)[C@@H]2C[C@@H](Oc3cc(-n4ccnc4)nc4cc(OC)ccc34)CN2C(=O)[C@H]1NC(=O)OC(C)(C)C(F)(F)F` [Compound 4281], the half-maximal effective concentration (EC50) in experiment [1] (read-out: LE_1a (EC50, range)) lay in the range of 5.01 to 35 nM; in experiment [2] (read-out: LE_1b (EC50, range)), 5.01 to 35 nM.

As for `[2H]C([2H])([2H])C1(S(=O)(=O)NC(=O)[C@@]23C[C@H]2/C=C\CC[C@@H](C)C[C@@H](CC)[C@H](NC(=O)OC(C)(C)C(C)(F)F)C(=O)N2C[C@H](Oc4nccc5cc(OC)c(F)cc45)C[C@H]2C(=O)N3)CC1` [Compound 5513], the EC50 in experiment [1] (read-out: LE_1a (EC50, range)) fell in the range of 1.01 to 5 nM; in experiment [2] (read-out: LE_1b (EC50, range)) it was 0.51 to 1 nM.

For the compound `[2H]C([2H])([2H])C1(S(=O)(=O)NC(=O)[C@@]23C[C@H]2/C=C\CC[C@@H](C)C[C@@H](CC)[C@H](NC(=O)OC(C)(C)C(F)F)C(=O)N2C[C@H](Oc4nccc5cc(OC)c(F)cc45)C[C@H]2C(=O)N3)CC1` [Compound 5515], the EC50 lay within 1.01 to 5 nM in experiment [1] (read-out: LE_1a (EC50, range)) and 0.51 to 1 nM in experiment [2] (read-out: LE_1b (EC50, range)).

Take `CC[C@@H]1C[C@H](C)CC/C=C\[C@@H]2C[C@@]2(C(=O)NS(=O)(=O)C2(C)CC2)NC(=O)[C@@H]2C[C@@H](Oc3nccc4c5c(ccc34)CCO5)CN2C(=O)[C@H]1NC(=O)OC(C)(C)C(F)(F)F` [Compound 5500]: the EC50 in experiment [1] (read-out: LE_1a (EC50, range)) lay within 5.01 to 35 nM; in experiment [2] (read-out: LE_1b (EC50, range)) it was 5.01 to 35 nM.

Turning to `CC[C@@H]1C[C@H](C)CC/C=C\[C@@H]2C[C@@]2(C(=O)NS(=O)(=O)C2(C)CC2)NC(=O)[C@@H]2C[C@@H](Oc3nc4nccn4c4ccc(Cl)cc34)CN2C(=O)[C@H]1NC(=O)OC(C)(C)C(F)(F)F` [Compound 6133], the EC50 in experiment [1] (read-out: LE_1a (EC50, range)) was 5.01 to 35 nM; in experiment [2] (read-out: LE_1b (EC50, range)), 0.51 to 1 nM.

On to `C[C@@H]1CC/C=C\[C@@H]2C[C@@]2(C(=O)NS(=O)(=O)C2(C)CC2)NC(=O)[C@@H]2C[C@@H](Oc3nccc4c5c(ccc34)CCO5)CN2C(=O)[C@@H](NC(=O)OC(C)(C)C(F)(F)F)[C@H](C)C1` [Compound 5497], for which the EC50 in experiment [1] (read-out: LE_1a (EC50, range)) was in the range of 5.01 to 35 nM; in experiment [2] (read-out: LE_1b (EC50, range)) it was 1.01 to 5 nM.

For the compound `[2H]C([2H])([2H])C1(S(=O)(=O)NC(=O)[C@@]23C[C@H]2/C=C\CC[C@@H](C)C[C@@H](CC)[C@H](NC(=O)OC(C)(C)C(C)(F)F)C(=O)N2C[C@H](Oc4nccc5cc(OCC)c(F)cc45)C[C@H]2C(=O)N3)CC1` [Compound 5519], the EC50 lay in the range of 1.01 to 5 nM in experiment [1] (read-out: LE_1a (EC50, range)) and 0.51 to 1 nM in experiment [2] (read-out: LE_1b (EC50, range)).

One may read the EC50 as the concentration at which the effect is half-maximal.

(Values after patent US9643999B2 (Bristol-Myers Squibb Company, priority 2012, dated 2017).)
